Measured values reported in PubChem BioAssay AID248 (DTP/NCI, 2004).
Values joined by “and” are separate entries in the source; they are usually repeats but may differ in a detail not shown here. Identical values can stand only once. Toxic doses and inconclusive results are not listed. Rule as the data show it: active = T/C of 150% or more; inactive = T/C below 125%.

Tested on: L1210 leukemia ip in BDF1 mice, survival T/C
Experiment: NCI In Vivo Anticancer Drug Screen. Data for tumor model L1210 Leukemia (intraperitoneal) in B6D2F1 (BDF1) mice
Conditions: endpoint: mean survival time, higher = longer survival
Outline: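 In this screen, tumor-bearing mice given compound are compared to those given vehicle, and their survival values are reported as a treated-to-control quotient.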

[1] = dose: 100.0 mg/kg/injection, schedule: Q04DX003 (ip), vehicle: saline with Tween-80
[2] = dose: 200.0 mg/kg/injection, schedule: Q04DX003 (ip), vehicle: saline with Tween-80
[3] = dose: 400.0 mg/kg/injection, schedule: Q04DX003 (ip), vehicle: saline with Tween-80
[4] = dose: 25.0 mg/kg/injection, schedule: Q01DX009 (ip), vehicle: Klucel (hydroxypropylcellulose) (HPC)
[5] = dose: 50.0 mg/kg/injection, schedule: Q01DX009 (ip), vehicle: Klucel (hydroxypropylcellulose) (HPC)
[6] = dose: 100.0 mg/kg/injection, schedule: Q04DX003 (ip), vehicle: Klucel (hydroxypropylcellulose) (HPC)
[7] = dose: 200.0 mg/kg/injection, schedule: Q04DX003 (ip), vehicle: Klucel (hydroxypropylcellulose) (HPC)
[8] = dose: 400.0 mg/kg/injection, schedule: Q01DX009 (ip), vehicle: Klucel (hydroxypropylcellulose) (HPC)
[9] = dose: 400.0 mg/kg/injection, schedule: Q04DX002 (ip), vehicle: saline with Tween-80

Measured: T/C

c1ccc(C2CC([P+](c3ccccc3)(c3ccccc3)c3ccccc3)=NN2)cc1 (stereo not given)
inactive: dose: 3.12 mg/kg/injection, schedule: Q01DX009 (ip), vehicle: Klucel (hydroxypropylcellulose) (HPC) 103 % of control | dose: 6.25 mg/kg/injection, schedule: Q01DX009 (ip), vehicle: Klucel (hydroxypropylcellulose) (HPC) 120 % of control | dose: 6.25 mg/kg/injection, schedule: Q04DX003 (ip), vehicle: Klucel (hydroxypropylcellulose) (HPC) 110 % of control | dose: 12.5 mg/kg/injection, schedule: Q01DX002 (ip), vehicle: Klucel (hydroxypropylcellulose) (HPC) 114 % of control | dose: 12.5 mg/kg/injection, schedule: Q01DX009 (ip), vehicle: Klucel (hydroxypropylcellulose) (HPC) 92 % of control | dose: 12.5 mg/kg/injection, schedule: Q04DX003 (ip), vehicle: Klucel (hydroxypropylcellulose) (HPC) 108 % of control | dose: 25.0 mg/kg/injection, schedule: Q01DX001 (ip), vehicle: Klucel (hydroxypropylcellulose) (HPC) 104 % of control | dose: 25.0 mg/kg/injection, schedule: Q01DX002 (ip), vehicle: Klucel (hydroxypropylcellulose) (HPC) 104 % of control | dose: 25.0 mg/kg/injection, schedule: Q04DX003 (ip), vehicle: Klucel (hydroxypropylcellulose) (HPC) 108 % of control | dose: 50.0 mg/kg/injection, schedule: Q01DX001 (ip), vehicle: Klucel (hydroxypropylcellulose) (HPC) 97 % of control | dose: 50.0 mg/kg/injection, schedule: Q01DX002 (ip), vehicle: Klucel (hydroxypropylcellulose) (HPC) 97 % of control | dose: 50.0 mg/kg/injection, schedule: Q04DX003 (ip), vehicle: Klucel (hydroxypropylcellulose) (HPC) 97 % of control

CC(=O)N(NC(=O)c1cccnc1)C(C)=O
inactive: dose: 3.75 mg/kg/injection, schedule: Q01DX015 (oral), vehicle: carboxymethylcellulose (CMC) 101 % of control | dose: 7.5 mg/kg/injection, schedule: Q01DX015 (oral), vehicle: carboxymethylcellulose (CMC) 100 % of control | dose: 15.0 mg/kg/injection, schedule: Q01DX015 (oral), vehicle: carboxymethylcellulose (CMC) 100 % of control | dose: 30.0 mg/kg/injection, schedule: Q01DX015 (oral), vehicle: carboxymethylcellulose (CMC) 106 % of control | dose: 62.0 mg/kg/injection, schedule: Q01DX Z (oral), vehicle: carboxymethylcellulose (CMC) 91 % of control | dose: 125.0 mg/kg/injection, schedule: Q01DX Z (oral), vehicle: carboxymethylcellulose (CMC) 91 % of control | dose: 250.0 mg/kg/injection, schedule: Q01DX Z (oral), vehicle: carboxymethylcellulose (CMC) 95 % of control

N=c1ccc2cc3ccc4ccccc4c3n(O)c-2c1
inactive: dose: 100.0 mg/kg/injection, schedule: Q01DX001 (ip), vehicle: saline with Tween-80 113 % of control | dose: 200.0 mg/kg/injection, schedule: Q01DX001 (ip), vehicle: saline with Tween-80 95 % of control | dose: 400.0 mg/kg/injection, schedule: Q01DX001 (ip), vehicle: saline with Tween-80 113 % of control

CC(=O)Nc1ccc(Br)cc1[N+](=O)[O-]
inactive: dose: 100.0 mg/kg/injection, schedule: Q01DX009 (ip), vehicle: acetone 92 % of control | dose: 200.0 mg/kg/injection, schedule: Q01DX009 (ip), vehicle: acetone 106 % of control | dose: 400.0 mg/kg/injection, schedule: Q01DX009 (ip), vehicle: acetone 101 % of control

C#CC1(OCC2CN(c3ccccc3)C(=O)O2)CCCCC1 (stereo not given)
inactive: dose: 100.0 mg/kg/injection, schedule: Q01DX009 (ip), vehicle: saline with Tween-80 106 % of control | [1] 97 % of control | dose: 200.0 mg/kg/injection, schedule: Q01DX009 (ip), vehicle: saline with Tween-80 108 % of control | [2] 105 % of control | dose: 400.0 mg/kg/injection, schedule: Q01DX009 (ip), vehicle: saline with Tween-80 108 % of control | [3] 92 % of control

Cc1ccc(NC(=O)COc2cc(Cl)c(Cl)cc2Cl)cc1[N+](=O)[O-]
inactive: [4] 86 % of control | [5] 100 % of control | dose: 75.0 mg/kg/injection, schedule: Q01DX009 (ip), vehicle: Klucel (hydroxypropylcellulose) (HPC) 100 % of control and 92 % of control

COC1OC(CBr)C(OC(=O)c2ccccc2)C(OC(=O)c2ccccc2)C1OC(=O)c1ccccc1 (stereo not given)
inactive: dose: 100.0 mg/kg/injection, schedule: Q04DX002 (ip), vehicle: Klucel (hydroxypropylcellulose) (HPC) 101 % of control | dose: 200.0 mg/kg/injection, schedule: Q04DX002 (ip), vehicle: Klucel (hydroxypropylcellulose) (HPC) 96 % of control | dose: 400.0 mg/kg/injection, schedule: Q04DX002 (ip), vehicle: Klucel (hydroxypropylcellulose) (HPC) 90 % of control

CC(=O)C(CCC#N)(CCC#N)C(=O)Nc1ccccc1
inactive: [6] 97 % of control | [7] 98 % of control | dose: 400.0 mg/kg/injection, schedule: Q04DX003 (ip), vehicle: Klucel (hydroxypropylcellulose) (HPC) 95 % of control

CCN1CC(C)(C)N(C(=O)c2ccccc2)CC1(C)C
inactive: dose: 5.0 mg/kg/injection, schedule: Q01DX001 (ip), vehicle: carboxymethylcellulose (CMC) 98 % of control | dose: 10.0 mg/kg/injection, schedule: Q01DX001 (ip), vehicle: carboxymethylcellulose (CMC) 106 % of control | dose: 20.0 mg/kg/injection, schedule: Q01DX001 (ip), vehicle: carboxymethylcellulose (CMC) 95 % of control | dose: 40.0 mg/kg/injection, schedule: Q01DX001 (ip), vehicle: carboxymethylcellulose (CMC) 109 % of control | dose: 80.0 mg/kg/injection, schedule: Q01DX001 (ip), vehicle: carboxymethylcellulose (CMC) 98 % of control

CC1(C)OC2COC3(COC(C)(C)O3)C(OS(C)(=O)=O)C2O1 (stereo not given)
inactive: [1] 92 % of control | [2] 95 % of control | [3] 95 % of control

CC(C)(C)C1=CC(=O)C(N2C3C4CCC(C4)C32)=C(N2C3C4CCC(C4)C32)C1=O (stereo not given)
inactive: dose: 100.0 mg/kg/injection, schedule: Q01DX001 (ip), vehicle: Klucel (hydroxypropylcellulose) (HPC) 96 % of control | dose: 200.0 mg/kg/injection, schedule: Q01DX001 (ip), vehicle: Klucel (hydroxypropylcellulose) (HPC) 94 % of control | dose: 400.0 mg/kg/injection, schedule: Q01DX001 (ip), vehicle: Klucel (hydroxypropylcellulose) (HPC) 87 % of control

O=C(COc1cccc(Cl)c1)Nc1cccnc1
inactive: dose: 12.0 mg/kg/injection, schedule: Q01DX009 (ip), vehicle: Klucel (hydroxypropylcellulose) (HPC) 89 % of control | [4] 98 % of control | [5] 92 % of control | [6] 93 % of control | [7] 103 % of control | [8] 87 % of control

O=C1OC(c2cccc(Cl)c2)=N/C1=C\c1ccccc1O
inactive: dose: 100.0 mg/kg/injection, schedule: Q01DX009 (ip), vehicle: Klucel (hydroxypropylcellulose) (HPC) 94 % of control | [8] 94 % of control

O=C1CCc2c1cccc2[N+](=O)[O-]
inactive: dose: 100.0 mg/kg/injection, schedule: Q04DX002 (ip), vehicle: saline with Tween-80 102 % of control | dose: 200.0 mg/kg/injection, schedule: Q04DX002 (ip), vehicle: saline with Tween-80 102 % of control | [9] 102 % of control

O=C(Nc1cccc([N+](=O)[O-])c1)c1ccc(Cl)cc1Cl
inactive: [1] 102 % of control | [2] 93 % of control | [3] 98 % of control

CCOC(=O)C(C#N)c1cccc(C)c1 (stereo not given)
inactive: [1] 95 % of control | [2] 98 % of control

c1nc(N2CC2)c2cnn(C3CCCCO3)c2n1 (stereo not given)
inactive: dose: 50.0 mg/kg/injection, schedule: Q01DX001 (ip), vehicle: carboxymethylcellulose (CMC) 97 % of control | dose: 50.0 mg/kg/injection, schedule: Q01DX009 (ip), vehicle: saline 102 % of control | dose: 100.0 mg/kg/injection, schedule: Q01DX001 (ip), vehicle: carboxymethylcellulose (CMC) 103 % of control | dose: 100.0 mg/kg/injection, schedule: Q01DX009 (ip), vehicle: saline 113 % of control | dose: 100.0 mg/kg/injection, schedule: Q04DX003 (ip), vehicle: saline 100 % of control | dose: 200.0 mg/kg/injection, schedule: Q01DX001 (ip), vehicle: carboxymethylcellulose (CMC) 106 % of control | dose: 200.0 mg/kg/injection, schedule: Q01DX009 (ip), vehicle: saline 112 % of control | dose: 200.0 mg/kg/injection, schedule: Q04DX003 (ip), vehicle: saline 97 % of control | dose: 400.0 mg/kg/injection, schedule: Q01DX001 (ip), vehicle: carboxymethylcellulose (CMC) 103 % of control

Nc1cc2ccc(O)cc2c2ccccc12
inactive: dose: 25.6 mg/kg/injection, schedule: Q04DX002 (ip), vehicle: saline with Tween-80 109 % of control | dose: 64.0 mg/kg/injection, schedule: Q04DX002 (ip), vehicle: saline with Tween-80 91 % of control | dose: 160.0 mg/kg/injection, schedule: Q04DX002 (ip), vehicle: saline with Tween-80 94 % of control | [9] 102 % of control
